Test results taken from publication PMC8708985, “Regulation of D-Aspartate Oxidase Gene Expression by Pyruvate Metabolism in the Yeast Cryptococcus humicola” (Microorganisms, 2021).

Biological target: T1, ChDDO (Vanrija humicola, UniProt Q75WF1)
T1 construct: gene DDO; native enzyme in crude extract of D-Asp-induced strain UJ1 cells; FAD added
Assay: HRP-coupled phenol/4-aminoantipyrine H2O2 assay at […] nm, crude extract
Type: biochemical
Conditions: 20 mM D-Asp; 20 uM FAD; 50 mM potassium phosphate pH 8.0

T1 sequence (Q75WF1 whole entry): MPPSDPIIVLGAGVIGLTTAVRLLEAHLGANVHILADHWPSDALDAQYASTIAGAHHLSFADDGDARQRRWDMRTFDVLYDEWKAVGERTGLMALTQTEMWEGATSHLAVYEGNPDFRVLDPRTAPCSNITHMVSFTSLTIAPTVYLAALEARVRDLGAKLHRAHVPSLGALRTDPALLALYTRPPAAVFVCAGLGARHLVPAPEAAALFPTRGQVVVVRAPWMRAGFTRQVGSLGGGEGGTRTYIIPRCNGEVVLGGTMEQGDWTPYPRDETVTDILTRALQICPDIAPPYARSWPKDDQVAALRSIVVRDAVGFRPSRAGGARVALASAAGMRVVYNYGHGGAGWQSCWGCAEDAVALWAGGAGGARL

With N[C@H](CC(=O)O)C(=O)O [D-Asp] the “HRP-coupled phenol/4-aminoantipyrine H2O2 assay at 505 nm, crude extract” value was “the enzyme activity in the crude extract of the ΔChpyc1 strain induced by D-Asp”.
